Data on 8 compounds can be found in patent US11760751B2, “Benzo 2-azaspiro[4.4]nonane compound and use thereof” (HELIOEAST PHARMACEUTICAL CO., LTD., priority 2020, dated 2023).

Series [1] concerns the target T1, S1PR1 (Homo sapiens, UniProt P21453).
T1 construct: expressed in transfected cells
Description: In vitro S1PR1 agonistic activity, PathHunter cell line, chemiluminescent detection. The format is cell-based. The conditions noted are these: for EC50: 90-180 min at 37° C.; for Emax: % activity vs maximum control ligand. The protocol: Test Embodiment 1: In Vitro Evaluation of the Agonistic Activity of the Compounds of the Present Disclosure on S1PR1
(§1) Experimental objective: to detect the agonistic activity of compounds on S1PR1
I. Cell Treatment • 1. A PathHunter cell line was thawed according to standard procedures; • 2. the cells were inoculated in a 20 μL 384-well microplate and incubated at 37° C. for appropriate time.
II. Agonist • 1. For agonist determination, cells were incubated with samples to be tested to induce a reaction; • 2. a storage solution to be tested was 5-fold diluted into a buffer; • 3. 5 μL of the 5-fold dilution was added to the cells and incubated at 37° C. for 90-180 minutes. The vehicle concentration was 1%.
III. Signal Detection • 1. 12.5 μL or 15 μL of PathHunter detection reagent at a volume ratio of 50% was added at a time, and then incubated at room temperature for 1 hour to generate a detection signal; • 2. the microplate was read with a PerkinElmer Envision™ instrument for chemiluminescent signal detection.
IV. Data Analysis • 1. Activity analysis of the compound was carried out by using CBIS data analysis kit (ChemInnovation, CAA); • 2. calculation formula: % activity=100%×(average test sample RLU−average vehicle RLU)/(average maximum control ligand−average vehicle RLU)

A short description of series [2]: Pharmacokinetic evaluation in CD-1 mice (intravenous and oral). The format is in vivo. The conditions noted are these: male, mouse, plasma; for Cmax / bioavailability: intravenous 0.5 mg/kg; for Cmax: oral 2.0 mg/kg (route of Cmax not stated), read-out: Peak concentration Cmax; for bioavailability: oral 2.0 mg/kg, read-out: Bioavailability F; for clearance / Vd: intravenous injection 0.5 mg/kg (oral 2.0 mg/kg); for clearance: read-out: Clearance rate CL; for Vd: read-out: Tissue distribution Vdss; for AUC(0-t) / half-life: oral administration 2.0 mg/kg; for AUC(0-t): read-out: Area under the drug-time curve AUC0-last PO; for half-life: read-out: Half-life T1/2 (PO) (converted). As for the experimental part: Test Embodiment 4: Pharmacokinetic Evaluation of Compound in Mice
Experimental objective: to test the pharmacokinetics of the compound in CD-1 mice
CD-1 mice (male, 20-40 g, 6-10 weeks old, Shanghai BK)
(§2) The standard protocol was used to test the pharmacokinetic characteristics of rodents after intravenous injection and oral administration of the compound. In the experiment, the candidate compound was prepared into a clear solution or a suspension, and administrated to two mice by single intravenous injection and oral administration. The vehicle for intravenous injection was a 5:95 DMSO and 10% hydroxypropyl β-cyclodextrin aqueous solution, and the vehicle for oral administration was a 0.5% w/v methylcellulose and 0.2% w/v tween 80 aqueous solution. Whole blood samples within 24 hours were collected, centrifuged at 3200 g for 10 minutes, and the supernatant was separated to obtain plasma samples. 4-fold volume of acetonitrile solution containing internal standard was added thereto to precipitate protein. The mixture was centrifuged, and the supernatant was taken, and an equal volume of water was added thereto. Then the mixture was centrifuged and the supernatant was taken for injection. The blood drug concentration was quantitatively analyzed by LC-MS/MS analysis method, and pharmacokinetic parameters, such as peak concentration, clearance rate, half-life, area under the drug-time curve and bioavailability, were calculated.

The target of series [3] is T1, S1PR1. The series is described as follows: In vitro S1PR1 agonistic activity, U2OS-EDG1 cells, LiveBLAzer-FRET B/G (CCF4-AM). The format is cell-based. The conditions noted are these: for EC50: 20 hours incubation; for Emax: % Effect, read-out: Emax. The protocol: Test Embodiment 2: In Vitro Evaluation of the Agonistic Activity of the Compounds of the Present Disclosure on S1PR1
as §1
I. Cell Treatment • 1. The cells U2OS-EDG1 (batch number: Invitrogen-K1520) were taken out from a liquid nitrogen tank and quickly thawed in a 37° C. water bath; • 2. the cell suspension was aspirated into a 15 mL centrifuge tube, resuspended in 5 mL of pre-warmed culture medium, and centrifuged at 1000 rpm for 5 min; • 3. the supernatant was discarded, 10 mL of culture medium was resuspended, transferred to a T75 culture flask, and cultured in a 37° C., 5% CO2 incubator.
II. Agonist Assay • 1. Compounds were diluted to working concentrations, and the compounds were 3-fold diluted by Echo 555 (manufacturer: Labcyte) to 10 concentrations, and then 200 nL of each concentration were transferred to cell plates, and centrifuged at 1000 rpm for 15 seconds; • 2. the culture medium in the culture flask was aspirated, and 4 mL of Dulbecco's Phosphate Buffered Saline (DPBS, supplier: Coring, catalog number: 21-031-CVR, batch number: 03318006) was added thereto to wash off the residual serum, and 2 mL of trypsin was added thereto, and incubated in a 37° C. incubator for 2 minutes to digest the cells, and then 10 mL of seed plate culture medium was added to resuspend the cells, and 0.6 mL of the cell suspension was taken out for counting; • 3. the cell density was adjusted with the seed plate culture medium to 1.88E+05 cells/mL, 40 μL was seeded per well (7500\well), and 40 μL of FreeStyle™ Expression culture medium was added around the cell plate, left to stand for 15 minutes at room temperature, and incubated at 37° C. with 5% CO2 for 20 hours.
III. Signal Detection • 1. LiveBLAzer™-FRET B/G Substrate (CCF4-AM) detection reagent was configured according to the instructions; • 2. 8 μL of 6×Substrate Mixture was added to each well of the cell plate, centrifuged at 1000 rpm for 15 seconds, attached with a membrane, incubated at 23° C. for 2 hours, and detected by Envision […].
IV. Data Analysis • 1. The original data was converted into % Effect by using the equation, and the value of EC50 could be obtained by curve fitting with four parameters [obtained in the “log(agonist) vs. response—Variable slope” mode in GraphPad Prism]; • 2. calculation formula: Ratio=(460 nm−blank)/(535 nm−blank) % Effect=(SampleRatio−Ave LCRatio)/(Ave HCRatio−Ave LCRatio)*100%

Series [4] can be described thus: Pharmacokinetic evaluation in SD rats (intravenous and oral). It counts as in vivo. The conditions noted are these: male, Sprague-Dawley, plasma, SD rat. As for the experimental part: Test Embodiment 3: Pharmacokinetic Evaluation of Compound in Rats
Experimental objective: to test the pharmacokinetics of the compound in SD rats
Sprague Dawley rat (male, 200-300 g, 7-9 weeks old, Shanghai SLAC)
as §2, with “A standard” for “The standard”, “clear solution,” for “clear solution or a suspension,”, “to rats” for “to two mice”, “hydroxypropyl cyclodextrin” for “hydroxypropyl β-cyclodextrin”, “at 3000” for “at 3200”, “for 15” for “for 10”

Where a name gives a salt, the structure may show the parent alone.

T1 sequence (P21453 whole entry): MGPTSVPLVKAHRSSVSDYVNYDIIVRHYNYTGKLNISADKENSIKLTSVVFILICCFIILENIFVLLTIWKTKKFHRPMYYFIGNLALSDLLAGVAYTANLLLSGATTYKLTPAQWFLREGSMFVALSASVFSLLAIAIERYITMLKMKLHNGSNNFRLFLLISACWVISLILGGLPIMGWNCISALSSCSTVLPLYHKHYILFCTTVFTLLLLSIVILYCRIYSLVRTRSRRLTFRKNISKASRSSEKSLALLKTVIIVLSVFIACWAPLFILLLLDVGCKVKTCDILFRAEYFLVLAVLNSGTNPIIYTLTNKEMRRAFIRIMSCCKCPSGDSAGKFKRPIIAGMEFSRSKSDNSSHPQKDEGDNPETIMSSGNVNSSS

In series [1], `CC(C)Oc1ncc(-c2nc(-c3cccc4c3CCC43CCN(C(=O)CO)C3)no2)cc1C#N` (stereo not shown) [Compound 8] gave an EC50 of 188 pM and an Emax of 96.8%. In series [2], the Cmax is 2280 ng/mL, the bioavailability stood at 80.3%, the clearance came to 3.58 mL/min/kg and the Vd came out at 0.816 L/kg. In series [2], the AUC(0-t) stood at 16.3 µM·h and the half-life is 2.9 h.

In the case of `CC(C)Nc1ncc(-c2nc(-c3cccc4c3CCC43CCN(CC4(C(=O)O)CC4)C3)no2)cc1C#N` (stereo not shown) [Hydrochloride of compound 33], in series [3], a half-maximal effect (EC50) was put at 10200 pM and the maximal effect (Emax) came to 99.9%.

Regarding `CC(C)Oc1ncc(-c2nc(-c3cccc4c3CCC43CCN(CC4(C(=O)O)CC4)C3)no2)cc1C#N` (stereo not shown) [Hydrochloride of compound 32], in series [3], a half-maximal response (EC50) required 1450 pM and the maximal effect (Emax) came to 95.9%.

For `CC(C)Oc1ccc(-c2nc(-c3cccc4c3CCC43CCN(C(=O)CO)C3)no2)cc1C#N` (stereo not shown) [Compound 1], in series [1], a half-maximal effect (EC50) was put at 137 pM and the Emax stood at 122%. In addition, in series [2], the Cmax amounted to 615 ng/mL, the bioavailability was 70.1%, the clearance was 18.2 mL/min/kg and the Vd was 2.17 L/kg. Besides, in series [2], the AUC(0-t) was found to be 2.74 µM·h and the half-life is 3.61 h. Further, the Cmax in series [4] (intravenous 1.0 mg/kg, oral 3.0 mg/kg (route of Cmax not stated), read-out: Peak concentration Cmax) amounted to 1140 ng/mL. Moreover, the bioavailability in series [4] (intravenous 1.0 mg/kg, oral 3.0 mg/kg, read-out: Bioavailability F) was determined as 83.1%. Further, the clearance in series [4] (intravenous injection 1.0 mg/kg (oral 3.0 mg/kg), read-out: Clearance rate CL) was found to be 5.97 mL/min/kg. Moreover, in series [4] (intravenous injection 1.0 mg/kg (oral 3.0 mg/kg), read-out: Tissue distribution Vdss), the Vd worked out at 2.66 L/kg. Moreover, the AUC(0-t) in series [4] (oral administration 3.0 mg/kg, read-out: Area under the drug-time curve AUC0-last PO) is 11.5 µM·h. Also, the half-life in series [4] (oral administration 3.0 mg/kg, read-out: Half-life T1/2 (PO) (converted)) was 4.91 h.

`N#Cc1cc(-c2nc(-c3cccc4c3CCC43CCN(CC4(C(=O)O)CC4)C3)no2)ccc1OC(F)F` (stereo not shown) [Hydrochloride of compound 34]: in series [3], a half-maximal effect (EC50) was put at 6070 pM and the maximum response (Emax) was determined as 94.9%.

Regarding `CC(C)Oc1ccc(-c2nc(-c3cccc4c3CCC43CCN(CC4(C(=O)O)CC4)C3)no2)cc1Br` (stereo not shown) [Hydrochloride of compound 30], in series [3], it took 132 pM to reach a half-maximal effect (EC50) and the Emax worked out at 103%.

As to `N#Cc1cc(-c2nc(-c3cccc4c3CCC43CCN(CC4(C(=O)O)CC4)C3)no2)ccc1OC1CCCC1` (stereo not shown) [Hydrochloride of compound 31], in series [3], a half-maximal effect (EC50) was put at 456 pM and the Emax stood at 101%.

For `CC(C)Oc1ccc(-c2nc(-c3cccc4c3CCC43CCN(CC4(C(=O)O)CC4)C3)no2)cc1C(F)F` (stereo not shown) [Hydrochloride of compound 29], in series [3], the EC50 was 21.1 pM and the maximum response (Emax) came to 91.5%.

As a reminder, the EC50 is the concentration at which the effect is half-maximal. Read a low EC50 as a more potent agent. In general, Emax refers to the maximal effect, on the per cent scale that the assay sets. As a reminder, the bioavailability is dose-corrected exposure relative to a reference, in per cent.
